What was measured:
Type in all cases: functional
[1] = tested on: Rattus norvegicus; assay: Percent reduction in swelling of the left hind paw in rat when 100 mg/kg of dose was injected perorally which was determined in adjuvant arthritis test; conditions: route oral
[2] = tested on: Rattus norvegicus; assay: Percent reduction in swelling of the left hind paw in rat when 10 mg/kg of dose was injected perorally which was determined in adjuvant arthritis test; conditions: route oral
[3] = species on record: Rattus norvegicus; assay: Activity relative to fenclofenac determined in adjuvant arthritis test
[4] = tested on: Rattus norvegicus; assay: Percent reduction in swelling of the left hind paw in rat determined in adjuvant arthritis test, 50 mg/kg dose perorally; conditions: route oral
[5] = tested on: Rattus norvegicus; assay: Percent reduction in swelling of the left hind paw in rat determined in adjuvant arthritis test, 25 mg/kg dose was perorally; conditions: route oral
[6] = tested on: Rattus norvegicus; assay: Minimum ulcerogenic dose was evaluated 24 hours after peroral administration; value may range from 25-50
[7] = tested on: Rattus norvegicus; assay: Minimum ulcerogenic dose was evaluated 24 hours after peroral administration; value may range from 100-200
[8] = tested on: Rattus norvegicus; assay: Minimum ulcerogenic dose was evaluated 24 hours after peroral administration

| Structure (SMILES) | Relative potency [3] | Reduction [4] [%] | Reduction [5] [%] | also measured |
| --- | --- | --- | --- | --- |
| Nc1cc(Cl)ccc1Oc1ccccc1CC(=O)O |  |  |  | Reduction [1]: 4% |
| Cc1cccc([N+](=O)[O-])c1Oc1ccccc1CC(=O)O |  |  |  | Reduction [2]: 26% |
| CN1CCc2ccccc2Oc2c(Cl)cccc21 | 1.4 | 31 |  |  |
| O=CN1CCc2ccccc2Oc2c(Cl)cccc21 |  |  |  | Reduction [1]: 33% |
| CCCN1CCc2ccccc2Oc2c(Cl)cc(Cl)cc21 | 0.6 | 39 |  |  |
| C[N+]1([O-])CCc2ccccc2Oc2c(Cl)cc(Cl)cc21 (stereo not drawn) | 2.2 | 42 |  |  |
| c1ccc2c(c1)CCNc1ccccc1O2 |  | 6 |  |  |
| Cc1ccc2c(c1)CCNc1cccc(Cl)c1O2 |  | 22 |  |  |
| COc1cc(N)c(Oc2ccccc2CC(=O)O)c(Cl)c1 |  |  | 24 |  |
| CCC[N+]1([O-])CCc2ccccc2Oc2c(Cl)cc(Cl)cc21 (stereo not drawn) |  | 36 |  |  |
| Nc1c(Cl)cc(Cl)cc1Oc1ccccc1CC(=O)O | 6.6 |  |  | Reduction [2]: 37% |
| O=C(O)Cc1cccc(Cl)c1Oc1c(Cl)cccc1[N+](=O)[O-] |  |  | 1 |  |
| CCCC(=O)N1CCc2ccccc2Oc2c(Cl)cc(Cl)cc21 |  |  |  | Reduction [1]: 8% |
| NNC(=O)N1CCc2ccccc2Oc2c(Cl)cc(Cl)cc21 | 0.6 |  | 32 |  |
| Cc1cc(N)c(Oc2ccccc2CC(=O)O)c(Cl)c1 |  |  | 20 |  |
| Nc1ccc(Cl)cc1Oc1ccccc1CC(=O)O |  |  | 12 |  |
| Cc1ccc2c(c1)CCNc1cc(Cl)c(Cl)cc1O2 |  | 8 |  |  |
| Nc1cc(Br)cc(Br)c1Oc1ccccc1CC(=O)O | 8.6 |  | 50 | MUD [6]: 25 mg/kg |
| Clc1ccc(CN2CCc3ccccc3Oc3c(Cl)cc(Cl)cc32)cc1 |  | 10 |  |  |
| Cc1cccc(CC(=O)O)c1Oc1c(Cl)cccc1[N+](=O)[O-] |  |  | 0 |  |
| CCc1cc(Cl)c2c(c1)NCCc1cc(C)ccc1O2 |  |  |  | Reduction [1]: 13% |
| O=C(Cc1ccccc1Oc1c(Cl)cccc1[N+](=O)[O-])NO |  | 36 |  |  |

| Structure (SMILES) | Relative potency [3] | Reduction [4] [%] | Reduction [5] [%] | also measured |
| --- | --- | --- | --- | --- |
| COC(=O)Cc1ccccc1Oc1c(Cl)cc(Cl)cc1NC(C)=O |  |  | 18 |  |
| Clc1ccc2c(c1)CCNc1cc(Cl)cc(Cl)c1O2 | 0.8 | 25 |  |  |
| Nc1cccc(Cl)c1Oc1cc(Cl)ccc1CC(=O)O |  |  | 1 |  |
| CCc1cc(N)c(Oc2ccc(C)cc2CC(=O)O)c(F)c1 |  |  | 1 | MUD [7]: 100 mg/kg |
| O=C(O)Cc1ccccc1Oc1c([N+](=O)[O-])cc(Cl)c(Cl)c1Cl | 0.6 |  |  | Reduction [2]: 17% |
| O=C(Cl)N1CCc2ccccc2Oc2c(Cl)cc(Cl)cc21 |  | 7 |  |  |
| CCc1cc(N)c(Oc2ccc(C)cc2CC(=O)O)c(Cl)c1 | 1 |  | 34 |  |
| Cc1ccc2c(c1)NCCc1ccccc1O2 |  | 0 |  |  |
| NC(=O)Cc1ccccc1Oc1c(Cl)cccc1[N+](=O)[O-] | 1.1 | 36 |  | MUD [8]: >800 mg/kg |
| COc1cc(Cl)c2c(c1)NCCc1ccccc1O2 |  | 18 |  |  |
| Fc1cccc2c1Oc1ccccc1CCN2 |  | 0 |  |  |
| CN1CCc2cc(Cl)ccc2Oc2c(Cl)cccc21 |  | 13 |  |  |
| Clc1ccc2c(c1)NCCc1ccccc1O2 |  | 0 |  |  |
| Cc1ccc2c(c1)CCN(C)c1cccc(Cl)c1O2 |  | 15 |  |  |
| CN1CCc2ccccc2Oc2c(Cl)cc(Cl)cc21 | 2.4 | 35 |  |  |
| Clc1cccc2c1Oc1ccccc1CCN2 | 0.2 |  |  | Reduction [1]: 33% |
| Clc1ccc2c(c1)Oc1ccccc1CCN2 |  | 0 |  |  |
| CCc1cc(Cl)cc(N)c1Oc1ccccc1CC(=O)O | 2.8 |  |  | Reduction [2]: 25% |
| CNc1cccc(Cl)c1Oc1ccccc1CCO | 5 |  |  | MUD [7]: 100 mg/kg; Reduction [2]: 36% |
| O=C(O)Cc1ccccc1Oc1c([N+](=O)[O-])ccc(Cl)c1Cl |  |  | 25 |  |
| Nc1cccc(Cl)c1Oc1ccccc1CC(=O)OC1OC(=O)c2ccccc21 (stereo not drawn) |  |  |  | Reduction [1]: 36% |
| Cc1cc(Cl)cc(N)c1Oc1ccccc1CC(=O)O | 5.6 |  |  | Reduction [2]: 34%; MUD [6]: 25 mg/kg |

| Structure (SMILES) | Relative potency [3] | Reduction [4] [%] | Reduction [5] [%] | also measured |
| --- | --- | --- | --- | --- |
| COC(=O)Cc1ccccc1Oc1c(N)cccc1Cl |  |  | 35 |  |
| Clc1ccc2c(c1)Oc1c(Cl)cccc1NCC2 |  | 10 |  |  |
| Cc1cc(N)c(Oc2ccc(Cl)cc2CC(=O)O)c(Cl)c1 | 1.4 |  | 32 |  |
| COC(=O)Cc1ccccc1Oc1c(Cl)cc(Cl)cc1N(C)C | 2.7 |  |  | Reduction [2]: 33% |
| Nc1cccc(Cl)c1Oc1ccccc1CC(=O)O | 3.5 |  | 36 | MUD [6]: 25 mg/kg |
| O=C(O)Cc1ccccc1Oc1c(Cl)cc(Cl)cc1[N+](=O)[O-] |  |  | 36 |  |
| CCC(C)c1cc(Cl)c2c(c1)NCCc1cc(C)ccc1O2 (stereo not drawn) |  | 14 |  |  |
| Cc1cc(Cl)cc2c1Oc1ccccc1CCN2 | 0.9 | 32 |  |  |
| Cc1c(Cl)ccc(N)c1Oc1ccccc1CC(=O)O | 4.1 |  | 34 | MUD [7]: 100 mg/kg |
| CNc1cccc(Cl)c1Oc1ccccc1CC(=O)O | 15 |  |  | MUD [8]: <12.5 mg/kg |
| Cc1ccc2c(c1)CCNc1cc(Cl)cc(Cl)c1O2 |  | 17 |  |  |
| Nc1cccc(F)c1Oc1ccccc1CC(=O)O |  |  | 27 |  |
| C[N+]1([O-])CCc2ccccc2Oc2c(Cl)cccc21 (stereo not drawn) | 0.7 |  | 23 |  |
| CCC(C)c1cc(N)c(Oc2ccc(C)cc2CC(=O)O)c(Cl)c1 (stereo not drawn) |  |  |  | Reduction [2]: 10% |
| O=C(c1ccc(Cl)cc1)N1CCc2ccccc2Oc2c(Cl)cc(Cl)cc21 |  | 0 |  |  |
| CCOC(=O)N1CCc2ccccc2Oc2c(Cl)cc(Cl)cc21 | 0.5 |  |  | Reduction [2]: 21% |
| Cc1cc(N)c(Oc2ccc(C)cc2CC(=O)O)c(Cl)c1 |  |  | 3 |  |
| C/C=C/CN1CCc2ccccc2Oc2c(Cl)cc(Cl)cc21 |  | 21 |  |  |
| O=C(O)Cc1ccccc1Oc1c(Cl)cc(Cl)c(Cl)c1[N+](=O)[O-] |  |  |  | Reduction [2]: 30% |
| Clc1ccc2c(c1)CCNc1cccc(Cl)c1O2 |  | 16 |  |  |
| CCN(CC)C(=O)Cc1ccccc1Oc1c(N)cccc1Cl |  | 6 |  |  |
| Nc1cc(Cl)c(Cl)c(Cl)c1Oc1ccccc1CC(=O)O | 8.2 |  |  | Reduction [2]: 33% |

| Structure (SMILES) | Relative potency [3] | Reduction [4] [%] | Reduction [5] [%] | also measured |
| --- | --- | --- | --- | --- |
| Cc1cc(Cl)cc([N+](=O)[O-])c1Oc1ccccc1CC(=O)O | 3.3 |  | 34 |  |
| Oc1ccc2c(c1)CCNc1cc(Cl)cc(Cl)c1O2 |  |  |  | Reduction [2]: 2% |
| CC(=O)NNC(=O)N1CCc2ccccc2Oc2c(Cl)cc(Cl)cc21 |  |  |  | Reduction [1]: 18% |
| Nc1ccc(Cl)c(Cl)c1Oc1ccccc1CC(=O)O |  |  | 33 |  |
| C=CCN1CCc2ccccc2Oc2c(Cl)cc(Cl)cc21 |  | 18 |  |  |
| Cc1ccc(Oc2cc(Cl)c(Cl)cc2N)c(CC(=O)O)c1 |  |  | 10 |  |
| CNc1cccc(C)c1Oc1ccccc1CC(=O)O | 6.5 |  | 46 | MUD [6]: 25 mg/kg |
| Clc1cc(Cl)c2c(c1)N(Cc1ccccc1)CCc1ccccc1O2 |  |  |  | Reduction [2]: 2% |
| COC(=O)Cc1ccccc1Oc1c(Cl)cccc1[N+](=O)[O-] |  |  | 31 |  |
| Cc1cc(Cl)c2c(c1)NCCc1cc(Cl)ccc1O2 | 0.5 |  |  | Reduction [1]: 21% |
| Nc1cccc(N)c1Oc1ccccc1CC(=O)O |  |  | 5 |  |
| Cc1c(Cl)c(C)c2c(c1Cl)Oc1ccccc1CCN2 |  | 6 |  |  |
| O=C(O)Cc1ccccc1Oc1ccccc1[N+](=O)[O-] |  | 1 |  |  |
| O=C(O)Cc1ccccc1Oc1ccc(C(F)(F)F)cc1[N+](=O)[O-] |  |  |  | Reduction [1]: 29% |
| O=C(O)Cc1ccccc1Oc1cc(Cl)cc(Cl)c1[N+](=O)[O-] | 2.9 |  |  | Reduction [2]: 34% |
| CC(C)(C)OC(=O)Cc1ccccc1Oc1c(Cl)cccc1[N+](=O)[O-] |  | 21 |  |  |
| NC(=O)Cc1ccccc1Oc1c(N)cccc1Cl |  | 14 |  |  |
| CNC(=O)N1CCc2ccccc2Oc2c(Cl)cc(Cl)cc21 |  |  |  | Reduction [2]: 4% |
| Clc1ccc2c(c1)CCNc1c(Cl)ccc(Cl)c1O2 |  | 14 |  |  |
| CNc1cc(Cl)cc(C)c1Oc1ccccc1CC(=O)O | 2.8 |  |  | Reduction [2]: 28% |
